Source: patent US20050090480A1, “Use of selected amino acid-zinc complexes as anti-malarials” (Council of Scientific & Industrial Research, priority 2003, published 2005)

Experiments:
[1] = system: chloroquine-resistant (W2Mef) strain of P. falciparum
Procedure: The W2Mef strain was used for these experiments. […] The following was the protocol for present experiment.
In the present study, Chloroquine-sensitive (3D7) strain and chloroquine-resistant (W2Mef) strain were used. The cultures were maintained in vitro using culture media consisting of standard RPMI-1640 supplemented with 10% heat inactivated Human Type O^+ Serum, 3.6% NaHCO3 at a hematocrit of 4%. All the assays were carried out in 96 well, flat bottom microtitre plates. For the synchronization of cultures, 5% sorbitol was used. The growth of the parasite was measured with incorporation of Hypoxanthine. A 200 μl volume of the culture parasite was added to each well initially. Different antimalarial compounds at varied concentrations were added to the wells. All the compounds were tested on both chloroquine-sensitive and chloroquine resistant strains. The plates were then placed in an airtight chamber and flushed with the gas mixture (5% CO2, 5% O2 and 90% N2). The plates were finally stored in an incubator at 37° C. for 24 hours.
At the end of the incubation period, 5 μl of diluted ^3H-Hypoxanthine—to a final concentration of 1 μCi—was added to each well. The plates were then returned to the airtight chamber and then flushed with the above gas mixture and incubated for an additional 24 hours. The plates were then stored at −70° C. until required for detection of incorporated radioactivity. When necessary, the plates were thawed and the cells were harvested onto filter-mats. These filter-mats were then dried and sealed.

P. falciparum = P. falciparum in vitro culture, parasitemia by Giemsa stained smear after 48 hrs; type: cell-based, Plasmodium falciparum; conditions: for inhibition of growth of P. falciparum: 10 μM concentration, 48 hrs incubation at 37° C.
Procedure: Selective enrichment of activity was monitored at every step using P. falciparum culture for in vitro studies.
Zinc complex of L-proline was dissolved in normal saline and filter sterilized. The compound was added to the parasite culture at different concentrations ranging from 1- 10 μM. The compound was tested at the indicated doses using the experimental protocol as described below:
Protocol for Testing the Effect of Drug on P. falciparum for In Vitro Studios
The P. falciparum cultures were synchronized at first by sorbitol treatment. The compound of various concentrations was added to the 200 μl of synchronized P. falciparum culture (1% parasitemia). The parasitemia was checked by making Giemsa stained smear after 48 hrs of incubation at 37° C.

W2Mef = conditions: FIG. 8
[2] = system: 3D7 strain of P. falciparum; conditions: light microscope (FIG. 3)
Procedure: In this experiment, slides were prepared, stained with Giemsa and examined under a light microscope. Representative pictures are show in FIG. 3.

P. berghei = conditions: about 1 mg to 50 mg/kg
Procedure: BALB/c mice (4-6 weeks old) were infected with 10^5 P. berghei parasites/mouse. […] After four days of infection, various concentrations of compound, at the doses of 10 mg/kg (Group 2) and 20 mg/kg (Group 3) body weight was injected to the mice. The control group (Group 1) indicates the group of mice infected with the parasite, but without any drug (i.e. vehicle only). Group 4 represents a group of infected mice treated with Pyrimethamine (at 20 mg/kg body weight) using an identical treatment regimen. Each group contained ten mice and the parasitemia levels—obtained from blood smears—are given as a percentage of that obtained in untreated mice (FIG. 4).

Plasmodium yeoeli = system: Plasmodium yeoeli
Description: For these experiments, the mouse malaria parasite Plasmodium yeoeli was used as this strain is considered to be closer to human parasite, P. falciparum. Groups of eight mice each were infected with 10^6 parasites/mouse through an intra-peritoneal injection. […] The drug was given once a day for a total period of six days. The mice were then left alone for an additional period of three days, after which the number of survivors were counted (i.e. at […] after infection). The results are shown here in FIG. 5. Group 1 represents a control group of uninfected mice, with no drug given. Group 3 represents the group of infected mice, again with no drug given (i.e. vehicle only).

Row | Molecule | increase in the IC50 value for chloroquine, W2Mef compared with 3D7 strain ([1]; FIG. 6) | inhibition of growth of P. falciparum (P. falciparum) | potency against chloroquine-sensitive versus chloroquine-resistant strain ([1]; dose response analysis, 3D7 and W2Mef (FIG. 7)) | activity against the chloroquine resistant strain-W2Mef ([1]; preliminary experiments and dose response analysis) | manner of action on W2Mef (W2Mef) | effect on the parasite in stained slides [2] | inhibits growth of P. berghei (P. berghei) | inhibits growth of P. facliparum (P. falciparum; about 5 μM to 10 μM) | inhibits growth of P. yeoeli (Plasmodium yeoeli; about 1 mg to 50 mg/Kg) | percentage of survivors (Plasmodium yeoeli; oral 20 mg/kg body weight once a day for six days, counted twelve days after infection)
1 | CCN(CC)CCCC(C)Nc1ccnc2cc(Cl)ccc12 (centres unmarked) [chloroquine, Chloroquine, reference compound] | near sevenfold increase | – | – | – | – | – | – | – | – | –
2 | Zinc complexes of L-histidine [Zinc complex of L-histidine] | – | ~85% | – | – | – | – | – | – | – | –
3 | Zinc complex of L-proline [PIZ2] | – | > 80% | remained identical | active | direct killing | significant disintegration of the parasite | about 80% | about 100% | about 90% | 88%
